Experimental data published in ChEMBL document CHEMBL1201862, “PubChem BioAssay data set” (2004).
Active and inactive are the calls of the source.

Assays:
[1] = biological target: T1, Cytochrome P450 1A2 (Homo sapiens, UniProt P05177);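 note: PubChem cytochrome P450 panel assay, CYP1A2 panel member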
T1 sequence (P05177 whole entry): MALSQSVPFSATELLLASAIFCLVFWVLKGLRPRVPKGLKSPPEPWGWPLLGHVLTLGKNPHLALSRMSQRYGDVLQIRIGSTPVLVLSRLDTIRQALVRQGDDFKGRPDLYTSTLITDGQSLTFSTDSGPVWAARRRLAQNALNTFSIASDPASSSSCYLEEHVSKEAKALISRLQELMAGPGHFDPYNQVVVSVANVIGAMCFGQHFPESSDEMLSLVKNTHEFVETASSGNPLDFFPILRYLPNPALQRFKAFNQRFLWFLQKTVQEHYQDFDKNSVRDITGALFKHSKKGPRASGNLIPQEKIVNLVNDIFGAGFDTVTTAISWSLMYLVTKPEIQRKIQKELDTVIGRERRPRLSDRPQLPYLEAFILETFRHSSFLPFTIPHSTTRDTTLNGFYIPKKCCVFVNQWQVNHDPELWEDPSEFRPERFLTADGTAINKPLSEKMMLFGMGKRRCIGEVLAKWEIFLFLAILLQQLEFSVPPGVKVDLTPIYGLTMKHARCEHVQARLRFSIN

[2] = biological target: Cytochrome P450 2D6 (Homo sapiens, UniProt P10635);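 note: CYP2D6 member of a cytochrome P450 panel assay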
[3] = biological target: Cytochrome P450 3A4 (Homo sapiens, UniProt P08684);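 note: CYP3A4 tested as one member of a cytochrome P450 panel screen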
[4] = biological target: Luciferin 4-monooxygenase (Photinus pyralis, UniProt P08659); assay: firefly luciferase enzyme inhibitors, dose response, biochemical, luminescence (AID 1891)
[5] = Luminescence Cell-Based Dose Confirmation HTS to Identify Inhibitors of Platelet Dense Granule Release. [Related pubchem assays: 1663 (Primary HTS), 1678 (Summary of Project)]; format: functional
[6] = biological target: T2, Corticotropin-releasing factor receptor 2/Corticotropin-releasing factor-binding protein (Homo sapiens, UniProt P24387+Q13324); assay: activators of CRF receptor 2 with binding protein – uHTS hits, confirmation (AID 602473); format: functional; conditions: read-out: EC50_Mean
T2 sequence (Q13324 whole entry): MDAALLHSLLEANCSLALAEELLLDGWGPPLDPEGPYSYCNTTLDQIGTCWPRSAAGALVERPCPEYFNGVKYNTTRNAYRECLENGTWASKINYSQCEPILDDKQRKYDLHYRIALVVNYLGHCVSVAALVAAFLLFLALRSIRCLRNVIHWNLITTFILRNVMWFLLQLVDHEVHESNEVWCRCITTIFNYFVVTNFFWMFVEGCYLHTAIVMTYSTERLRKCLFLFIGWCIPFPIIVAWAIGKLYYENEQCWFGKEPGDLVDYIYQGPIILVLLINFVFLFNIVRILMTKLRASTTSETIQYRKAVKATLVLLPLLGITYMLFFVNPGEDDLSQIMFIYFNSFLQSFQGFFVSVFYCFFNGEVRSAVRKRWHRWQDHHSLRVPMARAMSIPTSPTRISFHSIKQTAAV
T2 sequence (P24387 whole entry): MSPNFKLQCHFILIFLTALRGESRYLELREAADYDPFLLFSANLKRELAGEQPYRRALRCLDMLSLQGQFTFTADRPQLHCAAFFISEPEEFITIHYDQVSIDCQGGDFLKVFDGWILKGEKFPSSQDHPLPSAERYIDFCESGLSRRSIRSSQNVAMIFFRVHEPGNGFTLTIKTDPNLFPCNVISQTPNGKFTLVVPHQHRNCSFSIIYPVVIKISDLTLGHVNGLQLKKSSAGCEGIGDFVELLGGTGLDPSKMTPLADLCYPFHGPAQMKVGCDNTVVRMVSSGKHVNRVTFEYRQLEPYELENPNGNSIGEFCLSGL

[7] = cells; format: functional
[8] = C. albicans growth with fluconazole, confirmation, fluorescence, retest (AID 2467); format: functional, cell-based
[9] = NIH-3T3 fibroblast cytotoxicity, dose response, cytotoxicity control, cell-based, fluorescence, Alamar Blue, secondary assay (AID 2327); format: functional;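 note: NIH-3T3 mouse fibroblasts cultured with fluconazole at 8 µg/mL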
[10] = biological target: Cytochrome P450 2C9 (Homo sapiens, UniProt P11712)
[11] = biological target: T3, Calpain-2 catalytic subunit (Sus scrofa, UniProt P43367); assay: pig calpain II inhibitor potency, dose response, biochemical, fluorogenic peptide substrate (AID 1420); format: functional
T3 sequence (P43367 whole entry): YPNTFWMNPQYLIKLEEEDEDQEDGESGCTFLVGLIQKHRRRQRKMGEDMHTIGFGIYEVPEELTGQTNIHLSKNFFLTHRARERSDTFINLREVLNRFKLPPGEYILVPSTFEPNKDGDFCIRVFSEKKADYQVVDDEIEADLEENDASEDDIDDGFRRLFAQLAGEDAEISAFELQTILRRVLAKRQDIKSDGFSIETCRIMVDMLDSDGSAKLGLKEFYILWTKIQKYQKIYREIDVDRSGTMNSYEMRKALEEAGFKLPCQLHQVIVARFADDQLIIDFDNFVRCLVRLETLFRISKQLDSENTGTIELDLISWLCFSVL

[12] = biological target: T4, Streptokinase A (Streptococcus pyogenes serotype M1, UniProt P10520); assay: S. pyogenes streptokinase expression inhibitors, potency, dose response, plasminogen activation absorbance, OD405 (AID 1914); format: functional, Streptococcus pyogenes M1 GAS;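 note: secreted streptokinase activity via plasminogen activation per viability signal from cell pellet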
T4 sequence (P10520 whole entry): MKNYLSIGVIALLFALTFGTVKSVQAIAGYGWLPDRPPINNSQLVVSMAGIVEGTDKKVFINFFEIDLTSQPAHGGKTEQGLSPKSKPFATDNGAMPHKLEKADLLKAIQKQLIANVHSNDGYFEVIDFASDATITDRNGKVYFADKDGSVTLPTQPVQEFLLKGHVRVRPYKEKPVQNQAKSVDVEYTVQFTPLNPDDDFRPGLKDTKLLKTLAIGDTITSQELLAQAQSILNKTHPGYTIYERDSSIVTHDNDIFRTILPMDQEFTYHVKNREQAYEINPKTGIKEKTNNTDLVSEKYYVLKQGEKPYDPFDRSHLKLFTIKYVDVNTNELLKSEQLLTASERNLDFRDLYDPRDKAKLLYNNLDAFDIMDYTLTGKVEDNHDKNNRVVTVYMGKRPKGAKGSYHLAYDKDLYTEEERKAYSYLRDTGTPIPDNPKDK

Sequence of Cytochrome P450 2C9 (P11712 whole entry): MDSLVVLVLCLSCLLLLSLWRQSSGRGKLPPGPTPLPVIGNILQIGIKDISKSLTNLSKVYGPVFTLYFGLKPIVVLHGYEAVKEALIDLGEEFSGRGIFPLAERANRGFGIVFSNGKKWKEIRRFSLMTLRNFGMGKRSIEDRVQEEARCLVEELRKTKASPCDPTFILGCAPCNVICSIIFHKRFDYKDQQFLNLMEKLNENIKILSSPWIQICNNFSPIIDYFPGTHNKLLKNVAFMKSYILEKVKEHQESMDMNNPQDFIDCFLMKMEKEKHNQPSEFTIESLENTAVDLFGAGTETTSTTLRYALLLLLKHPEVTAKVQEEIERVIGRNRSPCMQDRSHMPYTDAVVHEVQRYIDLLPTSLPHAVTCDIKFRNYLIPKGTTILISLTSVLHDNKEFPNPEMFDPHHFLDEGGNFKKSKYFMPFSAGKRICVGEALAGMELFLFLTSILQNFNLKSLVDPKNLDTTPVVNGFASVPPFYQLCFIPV
Sequence of Cytochrome P450 3A4 (P08684 whole entry): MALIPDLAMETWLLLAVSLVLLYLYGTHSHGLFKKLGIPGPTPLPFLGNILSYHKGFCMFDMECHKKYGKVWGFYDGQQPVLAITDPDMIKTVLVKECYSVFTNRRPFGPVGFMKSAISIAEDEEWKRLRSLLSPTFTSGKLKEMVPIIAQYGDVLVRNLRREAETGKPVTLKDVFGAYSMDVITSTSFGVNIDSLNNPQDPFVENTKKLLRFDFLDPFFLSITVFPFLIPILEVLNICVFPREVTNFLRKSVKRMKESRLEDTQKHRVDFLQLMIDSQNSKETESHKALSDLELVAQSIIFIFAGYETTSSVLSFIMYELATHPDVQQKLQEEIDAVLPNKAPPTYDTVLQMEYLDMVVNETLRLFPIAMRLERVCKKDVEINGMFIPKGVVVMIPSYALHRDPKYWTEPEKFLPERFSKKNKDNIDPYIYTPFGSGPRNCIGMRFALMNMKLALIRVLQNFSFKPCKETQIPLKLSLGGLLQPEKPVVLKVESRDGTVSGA
Sequence of Luciferin 4-monooxygenase (P08659 whole entry): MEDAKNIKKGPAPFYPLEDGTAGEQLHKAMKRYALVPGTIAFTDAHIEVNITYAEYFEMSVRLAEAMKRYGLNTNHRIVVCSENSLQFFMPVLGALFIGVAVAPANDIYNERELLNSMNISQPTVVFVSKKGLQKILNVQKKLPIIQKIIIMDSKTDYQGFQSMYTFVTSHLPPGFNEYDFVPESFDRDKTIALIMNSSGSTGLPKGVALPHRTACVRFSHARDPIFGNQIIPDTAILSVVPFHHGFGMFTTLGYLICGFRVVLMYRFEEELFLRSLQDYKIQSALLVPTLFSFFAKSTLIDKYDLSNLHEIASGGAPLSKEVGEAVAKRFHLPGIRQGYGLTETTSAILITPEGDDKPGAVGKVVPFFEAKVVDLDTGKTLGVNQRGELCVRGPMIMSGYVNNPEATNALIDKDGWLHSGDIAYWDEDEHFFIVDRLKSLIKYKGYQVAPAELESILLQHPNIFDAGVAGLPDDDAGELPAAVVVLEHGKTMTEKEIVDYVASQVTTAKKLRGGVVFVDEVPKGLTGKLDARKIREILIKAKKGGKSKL
Sequence of Cytochrome P450 2D6 (P10635 whole entry): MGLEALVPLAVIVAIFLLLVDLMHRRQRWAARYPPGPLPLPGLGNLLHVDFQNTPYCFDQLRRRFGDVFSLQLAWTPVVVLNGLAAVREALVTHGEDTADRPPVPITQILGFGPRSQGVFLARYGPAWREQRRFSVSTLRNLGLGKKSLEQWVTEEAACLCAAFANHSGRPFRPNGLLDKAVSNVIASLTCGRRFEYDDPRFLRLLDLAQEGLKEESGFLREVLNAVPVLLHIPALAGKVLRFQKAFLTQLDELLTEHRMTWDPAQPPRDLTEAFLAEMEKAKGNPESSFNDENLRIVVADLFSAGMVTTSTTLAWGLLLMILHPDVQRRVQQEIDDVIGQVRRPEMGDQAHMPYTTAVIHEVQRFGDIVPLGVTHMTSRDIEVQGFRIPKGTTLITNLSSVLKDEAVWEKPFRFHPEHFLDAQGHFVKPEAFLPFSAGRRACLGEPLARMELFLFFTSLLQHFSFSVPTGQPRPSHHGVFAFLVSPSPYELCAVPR

In the case of `COCc1c(C(N)=O)nnn1-c1nonc1N`, the AC50 [1] is reported as 25.1 µM (inconclusive).
With `COc1ccc(C(=O)N2CCC3(CCCN(c4ncccn4)C3)CC2)cc1` the AC50 [1] was 20 µM (inconclusive), the AC50 [2] was 31.6 µM (inconclusive) and the AC50 [3] was 39.8 µM (inconclusive).
For `COc1ccc(Oc2nc(C)cc(C)c2S(=O)(=O)c2ccc(C)cc2)cc1`, the AC50 [3] was 1.12 µM (inconclusive).
For `COc1ccc(CC(=O)Nc2ccc(-c3cn4ccccc4n3)cc2)cc1OC`, the EC50 [4] was > 112 µM (not active) and the EC50 [5] was > 112 µM (not active).
In the case of `CC(C)Oc1cccnc1N(C)C1CCN(Cc2ccccc2)CC1`, the AC50 [3] is reported as 15.8 µM (inconclusive).
For `COc1ccccc1CNCc1cccs1`, the AC50 [3] was 17.8 µM (inconclusive).
With `COc1cc(OC)cc(C(=O)N/N=C/c2ccc(OC)c(COc3ccc(F)cc3)c2)c1` the EC50 [6] was > 53 µM (inactive).
In the case of `COc1ccc2cc(C(=O)C3CCCN(Cc4ccccn4)C3)ccc2c1` (stereo not given), the IC50 [7] is reported as 5.03 µM (active).
For `O=C(NCc1ccc(Cl)cc1)c1n[nH]c([N+](=O)[O-])c1Cl`, the EC50 [8] was 0.123 µM (active) and the EC50 [9] was > 160 µM (inactive).
In the case of `Cn1c(=O)c2[nH]c(SCCN3CCOCC3)nc2n(C)c1=S`, the AC50 [1] is reported as 0.631 µM (inconclusive), the AC50 [10] is reported as 6.31 µM (inconclusive) and the AC50 [3] is reported as 3.16 µM (inconclusive).
With `O=C(SCc1cccc2ccccc12)c1ccc(Cl)cc1` the AC50 [1] was 0.794 µM (inconclusive).
With `Cc1c(OCC(=O)N2CCN(c3ccccc3)CC2)ccc2c3c(c(=O)oc12)CCCC3` the EC50 [4] was > 112 µM (not active) and the EC50 [5] was > 112 µM (not active).
For `O=c1c(-c2ccc(F)cc2)nc2cnc(N3CCOCC3)nc2n1Cc1ccc(F)cc1`, the AC50 [1] was 20 µM (inconclusive) and the AC50 [2] was 39.8 µM (inconclusive).
In the case of `Cc1cccc(Oc2ccc(NC(=O)c3ccccc3C(=O)O)cc2)c1C`, the EC50 [6] is reported as 8.97 µM (active).
For `O=[N+]([O-])c1cc(C(F)(F)F)ccc1NCCNC(=S)Nc1ccc(Cl)cc1`, the IC50 [11] was 7.92 µM (not active) and the EC50 [12] was > 150 µM (not active).
In the case of `O=C(Nc1cccc(Br)c1)/C(=C\c1cccnc1)NC(=O)c1ccco1`, the AC50 [1] is reported as 31.6 µM (inconclusive) and the AC50 [10] is reported as 39.8 µM (inconclusive).
For `O=c1c(-c2ccccc2)nc2cnc(N3CCOCC3)nc2n1Cc1cccs1`, the AC50 [1] was 2.51 µM (inconclusive) and the AC50 [10] was 20 µM (inconclusive).
With `Cc1noc(NS(=O)(=O)c2ccc(NC(=O)c3ccc(Br)o3)cc2)c1C` the AC50 [10] was 14.1 µM (inconclusive) and the AC50 [3] was 39.8 µM (inconclusive).
For `COc1ccc(OC)c(NC(=O)CC(Cc2ccccc2OC)C(=O)O)c1` (stereo not given), the AC50 [1] was 0.0316 µM (inconclusive).
With `Cc1cccc(NC(=O)CNC(=O)COC(=O)CCS(=O)(=O)c2ccccc2)c1C` the EC50 [4] was > 112 µM (not active) and the EC50 [5] was > 112 µM (not active).
In the case of `CC1(C)S[C@@H]2[C@H](C(=O)O)N=C(Cc3ccccc3)N2[C@H]1C(=O)O`, the AC50 [1] is reported as 6.31 µM (inconclusive).
With `NS(=O)(=O)c1ccc(/N=N\c2nc3c(O)nc(O)nc3[nH]2)cc1` the AC50 [3] was 0.631 µM (inconclusive).
